Measurements: patent US12528818B2, “Compositions and methods for inhibition of RAS” (Leidos Biomedical Research, Inc., priority 2021, dated 2026)
pIC50: −log10 of the molar value.

Test system: pERK in NCI-H358 cells
Experiment: Cell-based pERK HTRF assay (pERK inhibition in H358 cells)
Details: Homo sapiens, NCI-H358, 0.5 h, pERK inhibition IC50, NCI-H358 cells, 30 min incubation; read-out: PERK in H358 cell

| SMILES | pIC50 |
| --- | --- |
| CN1CCC[C@H]1COc1nc(NC2CCCN(C#N)C2)c2cc(Cl)c(-c3ccc(F)c4sc(N)nc34)c(F)c2n1 (stereo partly drawn) [Compound 53] | < 6.00 |
| CC#CC(=O)N1CC[C@@H]2[C@H]1CN2c1nc(OCC23CCCN2CCC3)nc2c(F)c(-c3ccc(F)c4sc(N)nc34)c(-c3ccoc3)cc12 [Compound 120] | < 6.00 |
| C=CC(=O)N1CC(Nc2nc(OCC34CCCN3CCC4)nc3c(F)c(-c4ccc(F)c5sc(N)nc45)c(C(F)(F)F)cc23)C1 [Compound 79] | < 6.00 |
| C=CC(=O)N1CCN(c2nc(OC[C@]34CCCN3C[C@H](F)C4)nc3c(F)c(-c4ccc(F)c5sc(N)nc45)c(C(F)(F)F)cc23)CC1 [Compound 150] | > 7.00 |
| CN1CCC[C@H]1COc1nc(NC2CCN(C#N)C2)c2cc(Cl)c(-c3ccc(F)c4sc(N)nc34)c(F)c2n1 (stereo partly drawn) [Compound 51] | 6.00 to 7.00 |
| CC#CC(=O)N1CCN(c2nc(OCC34CCCN3CCC4)nc3c(F)c(-c4ccc(F)c5sc(N)nc45)c(Cl)cc23)CC1 [Compound 133] | < 6.00 |
| C=CC(=O)N1CC[C@@H](N(C)c2nc(OC[C@@]34CCCN3C[C@H](F)C4)nc3c(F)c(-c4ccc(F)c5sc(N)nc45)c(OC(F)(F)F)cc23)C1 [Compound 238, 1-((3R)-3-((7-(2-amino-7-fluorobenzo[d]thiazol-4-yl)-8-fluoro-2-(((2R,7aS)-2-fluorotetrahydro-1H-pyrrolizin-7a(5H)-yl)methoxy)-6-(trifluoromethoxy)quinazolin-4-yl)(methyl)amino)pyrrolidin-1-yl)prop-2-en-1-one] | 6.00 to 7.00 |
| C=CC(=O)N1CCN(c2nc(OC[C@@H]3CCCN3CCF)nc3c(F)c(-c4ccc(F)c5sc(N)nc45)c(C(F)(F)F)cc23)CC1 [Compound 153] | > 7.00 |
| C#CC(=O)N1CC(Nc2nc(OC[C@@H]3CCCN3C)nc3c(F)c(-c4ccc(F)c5sc(N)nc45)c(Cl)cc23)C1 [Compound 81] | 6.00 to 7.00 |
| C=CC(=O)N1CCN(c2nc(OCC34CCCN3CC(F)(F)C4)nc3c(F)c(-c4ccc(F)c5sc(N)nc45)c(C(F)(F)F)cc23)CC1 (stereo not drawn) [Compound 192] | > 7.00 |
| C=CC(=O)N1CC[C@@H](N(C)c2nc(OC[C@@]34CCCN3C[C@H](F)C4)nc3c(F)c(-c4ccc(F)c5sc(N)nc45)c(Cl)cc23)C1 [Compound 195, 1-((3R)-3-((7-(2-amino-7-fluorobenzo[d]thiazol-4-yl)-6-chloro-8-fluoro-2-(((2R,7aS)-2-fluorotetrahydro-1H-pyrrolizin-7a(5H)-yl)methoxy)quinazolin-4-yl)(methyl)amino)pyrrolidin-1-yl)prop-2-en-1-one] | > 7.00 |
| C=CC(=O)N1CC(Nc2nc(OC[C@@H]3CCCN3C)nc3c(F)c(-c4ccc(F)c5sc(N)nc45)c(Cl)cc23)C1 [Compound 23, 1-(3-((7-(2-amino-7-fluorobenzo[d]thiazol-4-yl)-6-chloro-8-fluoro-2-(((S)-1-methylpyrrolidin-2-yl)methoxy)quinazolin-4-yl)amino)azetidin-1-yl)prop-2-en-1-one] | < 6.00 |
| C=CC(=O)N1CC[C@@H](N(C)c2nc(OC[C@@]34CCCN3C[C@H](F)C4)nc3c(F)c(-c4ccc(F)c5sc(N)nc45)c(C(F)(F)F)cc23)C1 [Compound 198] | > 7.00 |
| C=CC(=O)N1C2CC1CN(c1nc(OCC34CCCN3CCC4)nc3c(F)c(-c4ccc(F)c5sc(N)nc45)c(Cl)cc13)C2 [Compound 161] | < 6.00 |
| C=CC(=O)N1CC[C@@H](N(C)c2nc(OC[C@@]34CCCN3C[C@H](F)C4)nc3c(F)c(-c4ccc(F)c5sc(N)nc45)c(C(F)(F)F)cc23)C1 (single isomer, unassigned) [Compound 239] | > 7.00 |
| C=C(F)C(=O)N1CCN(c2nc(OC[C@]34CCCN3C[C@H](F)C4)nc3c(F)c(-c4ccc(F)c5sc(N)nc45)c(C(F)(F)F)cc23)C[C@H]1C [Compound 191] | 6.00 to 7.00 |

Continued, values first:

| pIC50 | SMILES |
| --- | --- |
| > 7.00 | C=CC(=O)N1CCC(N(C)c2nc(OC[C@@H]3CC4(CC4)CN3C)nc3c(F)c(-c4ccc(F)c5sc(N)c(C#N)c45)ccc23)[C@H]1C (stereo partly drawn) [Compound 436] |
| > 7.00 | C=CC(=O)N1CCC(N(CC)c2nc(OC[C@@]34CCCN3C[C@H](F)C4)nc3c(C#N)c(-c4ccc(F)c5sc(N)c(C#N)c45)ccc23)[C@H]1C (stereo partly drawn) [Compound 415, 4-((1-acryloyl-2-methylpyrrolidin-3-yl)(ethyl)amino)-7-(2-amino-3-cyano-7-fluorobenzo[b]thiophen-4-yl)-2-(((2R,7aS)-2-fluorotetrahydro-1H-pyrrolizin-7a(5H)-yl)methoxy)quinazoline-8-carbonitrile] |
| > 7.00 | C=CC(=O)N1CC[C@@H](N(C)c2nc(OC[C@@]34CCCN3C[C@H](F)C4)nc3c(F)c(-c4ccc(F)c5sc(N)c(C#N)c45)c(Cl)cc23)C1 [Compound 342] |
| > 7.00 | C=CC(=O)N1C[C@H](C)N(c2nc(OC[C@@]34CCCN3C[C@H](F)C4)nc3c(F)c(-c4ccc(F)c5sc(N)c(C#N)c45)c(F)cc23)C[C@H]1C [Compound 333] |
| > 7.00 | C=CC(=O)N1CC[C@@H](N(C)c2nc(OCC3(CN4CCOCC4)CC3)nc3c(F)c(-c4ccc(F)c5sc(N)nc45)c(C(F)(F)F)cc23)C1 [Compound 287] |
| > 7.00 | C=CC(=O)N1CCC(N(C)c2nc(OC[C@@H]3CC4(CC4)CN3C)nc3c(F)c(-c4ccc(F)c5sc(N)c(C#N)c45)c(C(F)(F)F)cc23)[C@H]1C (stereo partly drawn) [Compound 409] |
| 6.00 to 7.00 | C=CC(=O)N1CCC(N(CC)c2nc(OC[C@@]34CCCN3C[C@H](F)C4)nc3c(C#N)c(-c4ccc(F)c5sc(N)c(C#N)c45)ccc23)[C@H]1COC (stereo partly drawn) [Compound 428] |
| > 7.00 | C=CC(=O)N1C[C@@H](F)[C@@H](N(C)c2nc(OC[C@@H]3C[C@@H](OC)CN3C)nc3cc(-c4ccc(F)c5sc(N)nc45)c(C(F)(F)F)cc23)C1 [Compound 350] |
| > 7.00 | C=CC(=O)N1CCC(N(C)c2nc(OC[C@@H]3CCCN3C)nc3c(F)c(-c4ccc(F)c5sc(N)c(C#N)c45)c(Cl)cc23)[C@H]1COC (stereo partly drawn) [Compound 416] |
| > 7.00 | C=CC(=O)N1C[C@H](F)[C@@H](N(C)c2nc(OC[C@@]34CCCN3C[C@H](F)C4)nc3cc(-c4ccc(F)c5sc(N)nc45)c(C(F)(F)F)cc23)C1 [Compound 335] |
| 6.00 to 7.00 | C=CC(=O)N1CCC(N(C)c2nc(OC[C@@]34CCCN3C[C@H](F)C4)nc3c(F)c(-c4ccc(F)c5sc(N)nc45)ccc23)[C@H]1C (stereo partly drawn) [Compound 413] |
| > 7.00 | C=CC(=O)N1C[C@H](N(C)c2nc(OC[C@@]34CCCN3C[C@H](F)C4)nc3c(F)c(-c4ccc(F)c5sc(N)nc45)c(C(F)(F)F)cc23)C[C@H]1C [Compound 274] |
| > 7.00 | C=CC(=O)N1CCN(c2nc(OC[C@@]34CCCN3C[C@H](F)C4)nc3c(F)c(-c4ccc(F)c5sc(N)c(C#N)c45)c(C(F)(F)F)cc23)C[C@@H]1C [Compound 329] |
| > 7.00 | C=CC(=O)N1C[C@H](C)N(c2nc(OC[C@@]34CCCN3C[C@H](F)C4)nc3cc(-c4c(F)cc(F)c5sc(N)nc45)c(C(F)(F)F)cc23)C[C@H]1C [Compound 298, 1-((2R,5S)-4-(7-(2-amino-5,7-difluorobenzo[d]thiazol-4-yl)-2-(((2R,7aS)-2-fluorotetrahydro-1H-pyrrolizin-7a(5H)-yl)methoxy)-6-(trifluoromethyl)quinazolin-4-yl)-2,5-dimethylpiperazin-1-yl)prop-2-en-1-one] |
| > 7.00 | C=CC(=O)N1C[C@H](C)N(c2nc(OCC34CCCN3CCC4)nc3c(F)c(-c4ccc(F)c5sc(N)c(C#N)c45)c(C(F)(F)F)cc23)C[C@H]1C [Compound 346] |
| > 7.00 | C=CC(=O)N1C[C@@H](F)[C@@H](N(C)c2nc(OC[C@@]34CCCN3C[C@H](F)C4)nc3cc(-c4ccc(F)c5sc(N)c(C#N)c45)c(C(F)(F)F)cc23)C1 [Compound 315, 4-(4-(((3S,4R)-1-acryloyl-4-fluoropyrrolidin-3-yl)(methyl)amino)-2-(((2R,7aS)-2-fluorotetrahydro-1H-pyrrolizin-7a(5H)-yl)methoxy)-6-(trifluoromethyl)quinazolin-7-yl)-2-amino-7-fluorobenzo[b]thiophene-3-carbonitrile] |
| > 7.00 | C=CC(=O)N1CCC(N(CC)c2nc(OC[C@@H]3CCCN3C)nc3c(F)c(-c4ccc(F)c5sc(N)c(C#N)c45)c(C(F)(F)F)cc23)[C@H]1COC (stereo partly drawn) [Compound 438] |
| > 7.00 | C=CC(=O)N1CCC(N(C)c2nc(OC[C@@]34CCCN3C[C@H](F)C4)nc3c(C#N)c(-c4ccc(F)c5sc(N)c(C#N)c45)c(Cl)cc23)[C@H]1C (stereo partly drawn) [Compound 388, 4-((1-acryloyl-2-methylpyrrolidin-3-yl)(methyl)amino)-7-(2-amino-3-cyano-7-fluorobenzo[b]thiophen-4-yl)-6-chloro-2-(((2R,7aS)-2-fluorotetrahydro-1H-pyrrolizin-7a(5H)-yl)methoxy)quinazoline-8-carbonitrile] |
| > 7.00 | C=CC(=O)N1CC[C@@H](N(C)c2nc(OC[C@@]34CCCN3C[C@H](F)C4)nc3cc(-c4ccc(F)c5sc(N)c(C#N)c45)c(C(F)(F)F)cc23)C1 [Compound 306] |
| > 7.00 | C=CC(=O)N1C[C@H](C)N(c2nc(OCC34CCCN3C[C@H](F)C4)nc3c(F)c(-c4ccc(F)c5sc(C(F)F)nc45)c(C(F)(F)F)cc23)C[C@H]1C (stereo partly drawn) [Compound 307] |

Same assay, conditions: Homo sapiens, NCI-H358, 0.5 h, read-out: PERK in H358 cell

| SMILES | pIC50 |
| --- | --- |
| CN1CCC[C@H]1COc1nc(NC2CN(C#N)C2)c2cc(Cl)c(-c3ccc(F)c4sc(N)nc34)c(F)c2n1 [Compound 40, 3-((7-(2-amino-7-fluorobenzo[d]thiazol-4-yl)-6-chloro-8-fluoro-2-(((S)-1-methylpyrrolidin-2-yl)methoxy)quinazolin-4-yl)amino)azetidine-1-carbonitrile] | 6.00 to 7.00 |

Same assay, conditions: pERK inhibition IC50, NCI-H358 cells, 30 min incubation; read-out: PERK in H358 cell

| pIC50 | SMILES |
| --- | --- |
| > 7.00 | C=CC(=O)N1C[C@H](C)N(c2nc(OC[C@@]34CCCN3C[C@H](F)C4)nc3c(F)c(-c4ccc(F)c5sc(N)nc45)c(C(F)(F)F)cc23)C[C@H]1C (atropisomer, axis not shown) [Compound 267] |
| 6.00 to 7.00 | C=CC(=O)N1CC[C@@H](N(C)c2nc(OC[C@]34CCCN3C[C@H](OC)C4)nc3c(F)c(-c4ccc(F)c5sc(N)nc45)c(C(F)(F)F)cc23)C1 (atropisomer, axis not shown) [Compound 278] |
